{"source": "patent US11945794B2", "about": "“Nuclear transport modulators and uses thereof” (Karyopharm Therapeutics Inc., priority 2013, dated 2024)", "key": {"[1]": {"tested_on": "Hep 3B xenograft", "assay": "Hep3B hepatocellular carcinoma xenograft model", "assay_type": "in vivo, mouse", "description": "Hep 3B cells (ATCC #HTB-8064) hepatocellular carcinoma cells were obtained from ATCC. These cells were grown in DMEM medium supplemented with 10% fetal bovine serum, 1% penicillin and streptomycin. Cells were sub-cultured by dilution at a ratio of 1:4. Hep3B cells were harvested by centrifugation and counted using a hemocytometer. Cells were resuspended in PBS at a concentration of 5×10^7 cells per mL. Cells were placed on ice, and then mixed with an equal volume of Matrigel™ (BD Biosciences CB-40234). This mixture was kept on ice and injected into the left flank of mice in a volume of 0.2 mL, equivalent to 5×10^6 cells per mouse. Thirty-two (32) SCID mice were inoculated subcutaneously in the left flank with 5×10^6 Hep 3B cells. Treatment was initiated when the tumors reached a mean volume of 103.7 mm^3 (standard deviation±30 mm^3, range 17-183 mm^3). Mice were allocated to four (4) groups of eight (8) mice such that mean tumor volume in each group was within the range of 95 to 104 mm^3. […] With the exception of doxorubicin (which was given IP), all compounds were given by oral gavage. […] Animal weights and conditions were recorded daily, and tumors were measured on Mondays, Wednesdays and Fridays."}, "[2]": {"tested_on": "anti-collagen antibody-induced arthritis", "assay": "Collagen antibody-induced arthritis (CAIA) mouse model", "assay_type": "in vivo", "description": "On study Day 0 (study commencement), all mice were subjected to a 4 mg intravenous injection of ArthritoMAb™ antibody cocktail (MD Biosciences #51306001), followed by an intraperitoneal injection of LPS (50 μg/mouse) on study Day 3. The mice began treatment on Day 6, when the average clinical scores reached 2.\nThe animals were examined for signs of arthritis on study Day 0 in all paws (front left and right paws, hind left and right paws). The signs of arthritis on study Day 0 served as a baseline for the arthritis clinical score parameter. Arthritic responses were examined daily from Day 3 until Day 8, and on Days 10, 12, 15 and 18 (study termination).\nClinical signs data are presented as means±SEM (standard error of the mean). Treatment groups 2-3 were compared to vehicle group 1 using one-way ANOVA test followed by Tukey post-test. A p value of <0.05 is considered to represent a significant difference."}, "[3]": {"target": "T1, XPO1 (Homo sapiens, UniProt O14980)", "T1 construct": "endogenous in cells; host or cells: HT1080 (fibrosarcoma) cells", "T1 sequence (O14980 whole entry)": "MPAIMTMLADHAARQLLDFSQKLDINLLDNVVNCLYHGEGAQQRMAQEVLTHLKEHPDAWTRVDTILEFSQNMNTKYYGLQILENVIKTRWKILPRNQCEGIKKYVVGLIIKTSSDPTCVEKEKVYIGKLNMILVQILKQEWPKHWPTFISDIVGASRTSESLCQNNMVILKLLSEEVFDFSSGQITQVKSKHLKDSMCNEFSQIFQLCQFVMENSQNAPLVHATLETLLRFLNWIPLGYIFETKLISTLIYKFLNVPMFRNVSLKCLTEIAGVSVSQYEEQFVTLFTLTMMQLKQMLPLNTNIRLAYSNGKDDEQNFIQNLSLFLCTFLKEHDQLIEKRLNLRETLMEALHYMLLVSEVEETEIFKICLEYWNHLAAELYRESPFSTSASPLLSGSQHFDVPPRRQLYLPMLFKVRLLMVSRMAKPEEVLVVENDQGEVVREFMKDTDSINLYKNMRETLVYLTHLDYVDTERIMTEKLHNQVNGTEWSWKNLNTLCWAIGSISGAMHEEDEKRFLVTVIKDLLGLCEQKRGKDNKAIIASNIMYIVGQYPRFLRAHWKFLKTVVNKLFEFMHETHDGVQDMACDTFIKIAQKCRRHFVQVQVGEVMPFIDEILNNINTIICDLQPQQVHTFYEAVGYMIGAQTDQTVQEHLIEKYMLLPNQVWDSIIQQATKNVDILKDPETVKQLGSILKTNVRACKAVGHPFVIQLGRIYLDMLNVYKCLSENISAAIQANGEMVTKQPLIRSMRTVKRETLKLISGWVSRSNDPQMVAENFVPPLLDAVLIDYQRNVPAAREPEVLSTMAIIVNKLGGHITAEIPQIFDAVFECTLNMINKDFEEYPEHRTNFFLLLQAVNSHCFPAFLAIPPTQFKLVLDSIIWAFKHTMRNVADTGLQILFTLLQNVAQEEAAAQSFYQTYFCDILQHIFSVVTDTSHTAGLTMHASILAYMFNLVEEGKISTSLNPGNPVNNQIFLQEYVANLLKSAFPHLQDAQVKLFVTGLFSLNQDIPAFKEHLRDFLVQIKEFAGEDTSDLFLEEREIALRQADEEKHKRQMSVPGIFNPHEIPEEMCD", "assay": "XPO1 degradation assay in HT1080 cells (Western blot)", "assay_type": "cell-based", "settings": "five concentrations, 24 hours", "excerpt": "Western blot analysis of cellular lysates of the treated cells was used to determine the protein expression of XPO1. Beta-actin was used as a loading control."}}, "data": [{"smiles": "NC(=O)/C(=C/n1cnc(-c2cc(C(F)(F)F)cc(C(F)(F)F)c2)n1)c1cncnc1", "note": "[Compound 124, (E)-3-(3-(3,5-bis(trifluoromethyl)phenyl)-1H-1,2,4-triazol-1-yl)-2-(pyrimidin-5-yl)acrylamide]", "values": [{"measurement": "mean tumor volume", "setting": "[1]; 5 or 15 mg/kg PO daily, SCID mice, compared to vehicle", "result": "mean tumor volume was reduced"}, {"measurement": "mean tumor volume compared with standard of care", "setting": "[1]; particularly 15 mg/kg PO daily, versus doxorubicin", "result": "compared favorably"}, {"measurement": "percentage of animals that showed clinical signs of arthritis", "setting": "[2]; 20 mg/kg PO twice a week, study Day 6 (start of treatment)", "result": 78, "unit": "%"}, {"measurement": "percentage of animals that showed clinical signs of arthritis", "setting": "[2]; 20 mg/kg PO twice a week, study Day 18", "result": 22, "unit": "%"}, {"measurement": "mean clinical score for all paws (arthritis scores)", "setting": "[2]; 20 mg/kg or 40 mg/kg PO, compared to vehicle", "result": "reduced arthritis scores"}, {"measurement": "percentage of animals that showed clinical signs of arthritis", "setting": "[2]; 40 mg/kg PO twice a week, study Day 6 (start of treatment)", "result": 88, "unit": "%"}, {"measurement": "percentage of animals that showed clinical signs of arthritis", "setting": "[2]; 40 mg/kg PO twice a week, study Day 18", "result": 13, "unit": "%"}, {"measurement": "protein expression of XPO1", "setting": "[3]", "result": "degraded XPO1 in a dose-dependent manner"}]}]}
